Data as given in patent US5002948A, “3-[4-[4-substituted-1-piperazinyl]-1-butyl]-1H-2,3-dihydroindoles” (H. Lundbeck A/S, priority 1988, dated 1991).

molecular target: T1, serotonin 5-HT1A receptors (Rattus norvegicus, UniProt P19327); test: Inhibition of 3H-8-OHDPAT binding to serotonin 5-HT1A receptors in rat brain in vitro; details: 3H-8-OHDPAT 1 nM, rat brain membranes minus cerebellum, 37° C., 15 min; read-out: IC50 (3H 8-OH DPAT binding)
T1 construct: membranes from rat brain minus cerebellum; from tissue; host or cells: brain minus cerebellum of male Wistar (Mol:Wist) rats, membranes
T1 sequence (P19327 1-422): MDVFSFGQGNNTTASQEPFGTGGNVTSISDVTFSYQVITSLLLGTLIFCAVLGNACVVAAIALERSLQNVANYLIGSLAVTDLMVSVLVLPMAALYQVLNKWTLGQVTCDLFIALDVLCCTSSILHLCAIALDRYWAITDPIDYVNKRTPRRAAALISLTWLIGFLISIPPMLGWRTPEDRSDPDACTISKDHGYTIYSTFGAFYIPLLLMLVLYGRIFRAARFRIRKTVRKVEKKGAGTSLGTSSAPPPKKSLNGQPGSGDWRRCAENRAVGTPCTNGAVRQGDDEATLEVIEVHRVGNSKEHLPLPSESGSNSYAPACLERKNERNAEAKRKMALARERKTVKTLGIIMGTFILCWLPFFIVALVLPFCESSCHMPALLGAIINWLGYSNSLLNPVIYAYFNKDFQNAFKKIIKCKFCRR
Description: INHIBITION OF ^3 H-8-OHDPAT BINDING TO SEROTONIN 5-HT1A RECEPTORS IN A RAT BRAIN IN VITRO
By this method the inhibition by drugs of the binding of ^3 H-8-OHDPAT (1 nM) to serotonin 5-HT1A receptors in membranes from rat brain minus cerebellum is determined in vitro.
Male Wistar (Mol:Wist) rats (125-250 g) are sacrificed and the brain is dissected and weighed. The brain tissue minus cerebellum is homogenized (Ultra Turrax, 20 sec) in 10 ml of ice cold 50 mM Tris buffer pH 8.0 (at 25° C.) containing 120 mM NaCl, 4 mM CaCl2 and 4 mM MgCl2. The homogenate is centrifuged at 20,000 g for 10 min at 4° C. The pellet is homogenized in 10 ml of buffer and incubated at 37° C. for 10 min. The homogenate is centrifuged as above and the pellet is homogenized in 100 vol (w/v) ice cold buffer containing 10 μ M of parglyine.
Incubation tubes kept on ice in triplicate receive 100 μl of drug solution in water (or water for total binding) and 1000 μ l of tissue suspension (final tissue content corresponds to 10 mg original tissue). The binding experiment is initiated by addition of 100 μ l of ^3 H-8-OHDPAT (final concentration 1 nM) and by placing the tubes in a 37° C. water bath. After incubation for 15 min the samples are filtered under vacuum (0-50 mBar) through Whatman GF/F filters ([…]). The tubes are rinsed with 5 ml ice cold 0.9% NaCl which are then poured on the filters. Thereafter, the filters are washed with 2×5 ml 0.9% NaCl. The filters are placed in counting vials and 4 ml of appropriate scintillation fluid (e.g. Picofluor™15) are added. After shaking for 1 h and storage 2 h in the dark the content of radioactivity is determined by liquid scintillation counting. Specific binding is obtained by subtracting the nonspecific binding in the presence of 10 μ M of 5-HT.
For determination of the inhibition of binding five concentrations of drugs covering 3 decades are used.
The IC50 -value is determined as the concentration, at which the binding is 50% of the total binding in control samples minus the nonspecific binding in the presence of 10 μM of 5-HT.
^3 H-8-OHDPAT from Amersham International plc. England. Specific activity approximately 200 Ci/mmol).

Point of comparison: `COc1ccccc1N1CCN(CCCCc2c[nH]c3ccccc23)CC1` [Compound 2a, 3-[4[4-(2-methoxyphenyl)-1-piperazinyl]-1-butyl]-1H-indole], IC50 17 nM. Against it:
- Oc1ccccc1N1CCN(CCCCC2CNc3ccccc32)CC1 (stereo not shown) [Compound 4a, 3-[4-[4-(2-hydroxyphenyl)-1-piperazinyl]-1-butyl]-1H-2,3-dihydroindole] — the same, 17 nM
- COc1ccccc1N1CCN(CCCCc2n[nH]c3ccc(C(F)(F)F)cc23)CC1 [Compound 9a, 3-[4-[4-(2-methoxyphenyl)-1-piperazinyl]-1-butyl]-5-trifluoromethyl-1H-indazole] — 2-fold lower, 8.6 nM
- COc1ccccc1N1CCN(CCCCC2CN(C)c3ccccc32)CC1 (stereo not shown) [Compound 6a, 3-[4-[4-(2-methoxyphenyl)-1-piperazinyl]-1-butyl]-1-methyl-1H-2,3-dihydroindole] — 2.5-fold higher, 43 nM
- COc1ccccc1N1CCN(CCCCc2c[nH]c3cc(Cl)ccc23)CC1 [Compound 1b, 6-Chloro-3-[4-[4-(2-methoxyphenyl)-1-piperazinyl]-1-butyl]-1H-indole] — 1.7-fold lower, 10 nM
- Fc1ccc2[nH]cc(CCCCN3CCN(c4cccc5c4OCCO5)CC3)c2c1 [Compound 2d, 3-[4-[4-(1,4-benzodioxan-5-yl)-1-piperazinyl]-1-butyl]-5-fluoro-1H-indole] — 4.6-fold lower, 3.7 nM
- Fc1ccc2c(c1)C(CCCCN1CCN(c3cccc4c3OCCO4)CC1)CN2 (stereo not shown) [Compound 3l, 3-[4-[4-(1,4-benzodioxan-5-yl)-1-piperazinyl]-1-butyl]-5-fluoro-1H-2,3-dihydroindole] — 3.9-fold lower, 4.4 nM
- O=C1c2ccccc2S(=O)(=O)N1CCCCN1CCN(c2ncccn2)CC1 [ipsapirone, reference compound] — the same, 17 nM
- COc1ccccc1N1CCN(CCCCc2c[nH]c3ccc(F)cc23)CC1 [Compound 1a, 5-Fluoro-3-[4-[4-(2-methoxyphenyl)-1-piperazinyl]-1-butyl]-1 H-indole] — 1.5-fold lower, 11 nM
- COc1ccccc1N1CCN(CCCCC2CN(C(C)=O)c3ccccc32)CC1 (stereo not shown) [Compound 5a, 1-Acetyl-3-[4-[4-(2-methoxyphenyl)-1-piperazinyl]-1-butyl]-1H-2,3-dihydroindole] — 2.1-fold higher, 35 nM
- c1cc2c(c(N3CCN(CCCCc4c[nH]c5ccccc45)CC3)c1)OCCO2 [Compound 2c, 3-[4-[4-(1,4-benzodioxan-5-yl)-1-piperazinyl]-1-butyl]-1H-indole] — 3-fold lower, 5.7 nM
- c1cc2c(c(N3CCN(CCCCc4c[nH]c5ccccc45)CC3)c1)OCC2 [Compound 2b, 3-[4-[4-(2,3-dihydro-7-benzofuranyl)-1-piperazinyl]-1-butyl]-1H-indole] — within 1.5-fold, 14 nM
- c1ccc2c(c1)NCC2CCCCN1CCN(c2cccc3c2OCCO3)CC1 (single isomer, unassigned; (-)) [Compound 7d, (-)-b 3-[4-[4-(1,4-benzodioxan-5-yl)-1-piperazinyl]-1-butyl]-1H-2,3-dihydroindole] — 5.5-fold lower, 3.1 nM
- Fc1ccc2c(c1)C(CCCCN1CCN(c3cccc4c3OCC4)CC1)CN2 (stereo not shown) [Compound 3m, 3-[4-[4-(2,3-dihydro-7-benzofuranyl)-1-piperazinyl]-1-butyl]-5-fluoro-1H-2,3-dihydroindole] — 3-fold lower, 5.7 nM
- Clc1ccc2c(c1)C(CCCCN1CCN(c3cccc4c3OCCO4)CC1)CN2 (stereo not shown) [Compound 3k, 3-[4-[4-(1,4-benzodioxan-5-yl)-1-piperazinyl]-1-butyl]-5-chloro-1H-2,3-dihydroindole] — 2.2-fold lower, 7.6 nM
- COc1ccccc1N1CCN(CCCCC2CNc3cc(Cl)ccc32)CC1 (stereo not shown) [Compound 3f, 6-chloro-3-[4-[4-(2-methoxyphenyl)-1-piperazinyl]-1-butyl]-1H-2,3-dihydroindole] — 2.9-fold lower, 5.8 nM
- COc1ccccc1N1CCN(CCCCC2C(=O)Nc3ccccc32)CC1 (stereo not shown) [Compound 8a, 3-[4-[4-(2-methoxyphenyl)-1-piperazinyl]-1-butyl]-1H-2,3-dihydroindol-2-on] — 3-fold higher, 51 nM
- COc1ccccc1N1CCN(CCCCC2CNc3ccc(F)cc32)CC1 (stereo not shown) [Compound 3g, 5-fluoro-3-[4-[4-(2-methoxyphenyl)-1-piperazinyl]-1-butyl]-1H-2,3-dihydroindole] — the same, 17 nM
- CC(C)Oc1ccccc1N1CCN(CCCCC2CNc3ccccc32)CC1 (stereo not shown) [Compound 3d, 3-[4-[4-(2-isopropyloxyphenyl)-1-piperazinyl]-1-butyl]-1H-2,3-dihydroindole] — the same, 17 nM
- Fc1ccc2[nH]cc(CCCCN3CCN(c4cccc5c4OCC5)CC3)c2c1 [Compound 2e] — within 1.5-fold, 15 nM
- COc1ccccc1N1CCN(CCCCC2CNc3ccc(Cl)cc32)CC1 (stereo not shown) [Compound 3e, 5-chloro-3-[4-[4-(2-methoxyphenyl)-1-piperazinyl]-1-butyl]-1H-2,3-dihydroindole] — 1.8-fold lower, 9.2 nM
- COc1cccc(N2CCN(CCCCC3CNc4ccccc43)CC2)c1OC (stereo not shown) [Compound 3h, 3-[4-[4-(2,3-dimethoxyphenyl)-1-piperazinyl]-1-butyl]-1H-2,3-dihydroindole] — 5.3-fold higher, 90 nM
- CSc1ccccc1N1CCN(CCCCC2CNc3ccccc32)CC1 (stereo not shown) [Compound 3b, 3-[4-[4-(2-methylthiophenyl)-1-piperazinyl]-1-butyl]-1H-2,3-dihydroindole] — within 1.5-fold, 14 nM
- c1ccc2c(c1)NCC2CCCCN1CCN(c2cccc3c2OCCO3)CC1 (single isomer, unassigned; (+)) [Compound 7c, (+)-3-[4-[4-(1,4-benzodioxan-5-yl)-1-piperazinyl]-1-butyl]-1H-2,3-dihydroindole] — 4.9-fold lower, 3.5 nM

molecular target: T2, 5-HT1A (Rattus norvegicus, UniProt P19327); test: Generalization to discriminative stimulus properties induced by 8-OHDPAT in rats (agonism); assay type: in vivo, Male Wistar rats; design: from tissue; host or cells: whole living animal, male Wistar rats, s.c. dosing; details: rat, sc, read-out: ED50, 8-OH DPAT cue agonism
T2 sequence (P19327 1-422): T1 sequence (P19327 1-422)
Source text: GENERALIZATION TO DISCRIMINATIVE STIMULUS PROPERTIES INDUCED BY 8-OHDPAT IN RATS.
This test model is used to determine the agonist effects of a test compound on 5-HT1A receptors in vivo. A related method is described by Tricklebank, M. D., J. Neill, E. J. Kidd and J. R. Fozard, Eur. J. Pharmacol. 133, 37-56, 1987; Arnt, J., Pharmacology & Toxicology 64, 165-172, 1989.
The procedure is the same as for the antagonism test mentioned above, except that the test compound is substituted for 8-OHDPAT and injected s.c. usually 30 minutes or 45 minutes respectively before beginning of the test.
The per cent drug response obtained for each dose of test compound is used to calculate ED50 values by log-probit analysis.

`CC1(C)CC(=O)N(CCCCN2CCN(c3ncccn3)CC2)C(=O)C1` [gepirone, reference compound] gave an ED50 of 0.81 µmol/kg.

same assay, conditions: rat, sc, usually 30 or 45 min before test; substituted for 8-OHDPAT; per cent drug response; read-out: ED50, 8-OH DPAT cue agonism

In the case of `O=C1c2ccccc2S(=O)(=O)N1CCCCN1CCN(c2ncccn2)CC1` [ipsapirone, reference compound], the ED50 is reported as 1.8 µmol/kg.

molecular target: T2, 5-HT1A; test: Inhibition of 5-methoxy-N,N-dimethyltryptamine (5-MeODMT) induced 5-HT syndrome in rats; assay type: in vivo, Male Wistar rats; design: Male Wistar rats (Mol:Wist) weighing 170-240 g are used; from tissue; host or cells: whole living animal, male Wistar rats (Mol:Wist), s.c. dosing; details: rat, sc
Source text: INHIBITION OF 5-METHOXY-N,N-[…] INDUCED 5-HT SYNDROME IN RATS
The so-called 5-HT syndrome is a characteristic behaviour pattern which is induced by 5-HT agonists with effects on 5-HT, possibly 5-HT1A receptors, although lack of specific antagonists make it difficult to evaluate specificity (Smith, L. M. and S. J. Peroutka, Pharmacol. Biochem. & Behaviour 24, 1513-1519, 1986; Tricklebank, M. et al., Eur. J. Pharmacol. 117, 15-24, 1985).
Male Wistar rats (Mol:Wist) weighing 170-240 g are used. Test substrate is injected subcutaneously 30 min. before 5-methoxy-N,N-dimethyltryptamine 5 mg/kg, s.c. Four rats are used for each dose. A control group pretreated with saline is included each test day. Ten, 15 and 20 min later the rats are observed for presence of serotonin (5-HT) syndrome: (1) forepaw treading ("piano playing"), (2) head weaving and (3) hindleg abduction. Further, flat motility is scored. Each part of the syndrome is scored as follows: marked effect (score 2), weak syndrome (score 1) and no effect (score 0). The scores of the three observation times are added. Thus the maximum obtainable score for four rats is 24. The effect of the test substance is expressed as per cent inhibition relative to the control group.
The per cent inhibition of the piano playing syndrome is used as the response, and ED50 values are calculated by log-prohibit analysis.

Point of comparison: `O=C1c2ccccc2S(=O)(=O)N1CCCCN1CCN(c2ncccn2)CC1` [ipsapirone, reference compound], ED50 26 µmol/kg. Against it:
- CC1(C)CC(=O)N(CCCCN2CCN(c3ncccn3)CC2)C(=O)C1 [gepirone, reference compound] — higher, 32 µmol/kg
